{
  "source": "patent US9221827B2",
  "about": "“Antimicrobial compounds and methods of making and using the same” (Melinta Therapeutics, Inc., priority 2011, dated 2015)",
  "data": [
    {"test_system": "Escherichia coli strain ATCC25922", "assay": "standard microdilution assay to determine minimum inhibitory concentrations (MICs)", "format": "cell-based", "conditions": "Escherichia coli strain ATCC25922, microdilution", "summary_of_the_method": "(§1)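 Broth microdilution per CLSI (M7-A8/M100-S20), 100 μl final volume, with reference-strain quality control; MIC is the lowest inhibitory concentration. Scored \"+\"/\"−\" against a 16 micrograms/ml cutoff, \"N/A\" where unavailable.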", "values": [
      {"smiles": "CCC(N)COC(C)c1cc(-c2cc3cn(-c4ccc(CNCCCNC(=N)N)cc4)c(=O)nc3[nH]2)cc(C(F)(F)F)c1", "note": "(centres unmarked) [Compound 479]", "E. coli ATCC25922 MIC": "+ (a “+” indicates that the compound has an MIC value of 16 micrograms/ml or less)"},
      {"smiles": "COC(=O)CC(NCCCNC(=N)N)c1ccc(-n2cc3cc(-c4cc(CCCC(C)N)cc(C(F)(F)F)c4)[nH]c3nc2=O)cc1", "note": "(centres unmarked) [Compound 488]", "E. coli ATCC25922 MIC": "+ (a “+” indicates that the compound has an MIC value of 16 micrograms/ml or less)"},
      {"smiles": "N=C(N)NCC(F)(F)CNCc1ccc(-n2cc3cc(-c4cc(CCCCN)cc(OC(F)(F)F)c4)[nH]c3nc2=O)cc1", "note": "[Compound 30]", "E. coli ATCC25922 MIC": "+ (a “+” indicates that the compound has an MIC value of 16 micrograms/ml or less)"},
      {"smiles": "CC(CCCc1cc(Cl)c(F)c(-c2cc3cn(-c4ccc(CNCCCNC(=N)N)cc4)c(=O)nc3[nH]2)c1)N(C)C", "note": "(centres unmarked) [Compound 298]", "E. coli ATCC25922 MIC": "+ (a “+” indicates that the compound has an MIC value of 16 micrograms/ml or less)"},
      {"smiles": "N=C(N)NCCCNCc1c(F)cc(-n2cc3cc(-c4cc(CCCCN)cc(OC(F)(F)F)c4)[nH]c3nc2=O)cc1F", "note": "[Compound 52]", "E. coli ATCC25922 MIC": "+ (a “+” indicates that the compound has an MIC value of 16 micrograms/ml or less)"},
      {"smiles": "C[C@H](N)COCc1cc(-c2cc3cn(-c4ccc(CNCCCNC(=N)N)cc4)c(=O)nc3[nH]2)cc(C(F)(F)F)c1", "note": "[Compound 323]", "E. coli ATCC25922 MIC": "+ (a “+” indicates that the compound has an MIC value of 16 micrograms/ml or less)"},
      {"smiles": "C[C@H](N)C/C=C/c1cc(Cl)c(F)c(-c2cc3cn(-c4ccc(CNCCCNC(=N)N)cc4)c(=O)nc3[nH]2)c1", "note": "[Compound 312]", "E. coli ATCC25922 MIC": "+ (a “+” indicates that the compound has an MIC value of 16 micrograms/ml or less)"},
      {"smiles": "Cc1cc(-c2cc3cn(-c4ccc(CNCCCN=C(N)N)cc4)c(=O)nc3[nH]2)cc(CCCCN)c1F", "note": "[Compound 73]", "E. coli ATCC25922 MIC": "+ (a “+” indicates that the compound has an MIC value of 16 micrograms/ml or less)"},
      {"smiles": "N=C(N)NCCCNCc1ccc(-n2cc3cc(-c4cc(CC[C@@H](O)CN)cc(OC(F)(F)F)c4)[nH]c3nc2=O)cc1", "note": "[Compound 238]", "E. coli ATCC25922 MIC": "+ (a “+” indicates that the compound has an MIC value of 16 micrograms/ml or less)"},
      {"smiles": "NCCCCc1cc(F)c(Cl)c(-c2cc3cn(-c4ccc(CNCCCN=C(N)N)c(F)c4)c(=O)nc3[nH]2)c1", "note": "[Compound 71]", "E. coli ATCC25922 MIC": "+ (a “+” indicates that the compound has an MIC value of 16 micrograms/ml or less)"}
    ]},
    {"test_system": "Escherichia coli strain ATCC25922", "assay": "standard microdilution assay to determine minimum inhibitory concentrations (MICs)", "format": "cell-based", "conditions": "Escherichia coli strain ATCC25922, standard microdilution assay", "summary_of_the_method": "as §1", "values": [
      {"smiles": "C[C@H](NCCCNC(=N)N)c1ccc(-n2cc3cc(-c4cc(C5CCC(CN)CC5)cc(Cl)c4F)[nH]c3nc2=O)cc1", "note": "(some centres unmarked) [Compound 451]", "E. coli ATCC25922 MIC": "+ (a “+” indicates that the compound has an MIC value of 16 micrograms/ml or less)"},
      {"smiles": "CC(NCCCNC(=N)N)c1ccc(-n2cc3cc(-c4cc(CCCC(N)CO)cc(Cl)c4F)[nH]c3nc2=O)cc1", "note": "(centres unmarked) [Compound 391]", "E. coli ATCC25922 MIC": "+ (a “+” indicates that the compound has an MIC value of 16 micrograms/ml or less)"},
      {"smiles": "N=C(N)NCCCNCc1ccc(-n2cc3cc(-c4cc(OC(F)(F)F)cc(C5CCC(CN)O5)c4)[nH]c3nc2=O)cc1", "note": "(centres unmarked) [Compound 437]", "E. coli ATCC25922 MIC": "+ (a “+” indicates that the compound has an MIC value of 16 micrograms/ml or less)"},
      {"smiles": "CC(CN)SCc1cc(SC(F)(F)F)cc(-c2cc3cn(-c4ccc(C(C)NCCCNC(=N)N)cc4)c(=O)nc3[nH]2)c1", "note": "(centres unmarked) [Compound 337]", "E. coli ATCC25922 MIC": "+ (a “+” indicates that the compound has an MIC value of 16 micrograms/ml or less)"},
      {"smiles": "C[C@H](NCCCNC(=N)N)c1ccc(-n2cc3cc(-c4cc(CC5CCC(N)CC5)cc(Cl)c4F)[nH]c3nc2=O)cc1", "note": "(some centres unmarked) [Compound 449]", "E. coli ATCC25922 MIC": "+ (a “+” indicates that the compound has an MIC value of 16 micrograms/ml or less)"},
      {"smiles": "C[C@H](N)CCCc1cc(OC(F)(F)F)cc(-c2cc3cn(-c4ccc(CN)cc4)c(=O)nc3[nH]2)c1", "note": "[Compound 355]", "E. coli ATCC25922 MIC": "− (a “−” indicates that the compound has an MIC value greater than 16 micrograms/ml)"},
      {"smiles": "CN(CCCNC(=N)N)Cc1ccc(-n2cc3cc(-c4cc(CCCCN)cc(C(F)(F)F)c4)[nH]c3nc2=O)cc1", "note": "[Compound 338]", "E. coli ATCC25922 MIC": "+ (a “+” indicates that the compound has an MIC value of 16 micrograms/ml or less)"}
    ]}
  ]
}
